Test in all cases: Bacterial growth minimal inhibitory concentration, microdilution in cation-adjusted Mueller-Hinton Broth (CLSI M7-A7)
Type in all cases: cell-based

The test system of one experiment is P. aeruginosa ATCC27853. The conditions noted are these: Pseudomonas aeruginosa, ATCC27853; quinolone-sensitive strain; read-out: MIC for P. aeruginosa ATCC27853. As for the experimental part: (§1) Minimal Inhibitory Concentrations (MICs; mg/L) were determined in cation-adjusted Mueller-Hinton Broth by a microdilution method following the description given in “Methods for Dilution Antimicrobial Susceptibility Tests for Bacteria that Grow Aerobically”, Approved standard, 7th ed., Clinical and Laboratory Standards Institute (CLSI) Document M7-A7, Wayne, Pa., U.S.A. (2006).
(§2) All Example compounds were tested against several Gram-positive and Gram-negative bacteria. […] K. pneumoniae A-651 is a multiply-resistant strain (in particular quinolone-resistant), while E. coli ATCC25922 and P. aeruginosa ATCC27853 are quinolone-sensitive strains.

For a further experiment, the system named is E. coli ATCC25922. The conditions noted are these: Escherichia coli, ATCC25922; quinolone-sensitive strain; read-out: MIC for E. coli ATCC25922. The procedure: as §1, §2
The subject of another experiment is K. pneumoniae A-651. The conditions noted are these: Klebsiella pneumoniae, A651; multiply-resistant strain (in particular quinolone-resistant); read-out: MIC for K. Pneumoniae A-651. The procedure:
as §1, §2

SMILES strings stand for the structures. Converted amounts (≈) assume the structure as drawn. A value given as a limit tells only on which side of the number the result lay.

Broadly, the MIC is the least concentration at which growth counts as inhibited. Consider `C[C@@](CCn1cnc2cc(C#CC#CC3(C(O)CO)CC3)ccc2c1=O)(C(=O)NO)S(C)(=O)=O` (mixture of isomers) [Example 19, (2R)-4-(7-((1-((RS)-1,2-dihydroxyethyl)cyclopropyl)buta-1,3-diyn-1-yl)-4-oxoquinazolin-3(4H)-yl)-N-hydroxy-2-methyl-2-(methylsulfonyl)butanamide], for which the MIC with P. aeruginosa ATCC27853 is 8 µg/mL; in the experiment with E. coli ATCC25922, 8 µg/mL; with K. pneumoniae A-651 it was 32 µg/mL.
For the molecule `CC(CCn1cnc2cc(-c3ccc(OCCCN4CCOCC4)cc3F)ccc2c1=O)(C(=O)NO)S(C)(=O)=O.O=CO` (racemic) [RE1, (RS)-4-(7-(2-fluoro-4-(3-morpholinopropoxy)phenyl)-4-oxoquinazolin-3(4H)-yl)-N-hydroxy-2-methyl-2-(methylsulfonyl)butanamide formate], the MIC was 16 µg/mL in the experiment on P. aeruginosa ATCC27853, 1 µg/mL with E. coli ATCC25922 and 2 µg/mL in the experiment on K. pneumoniae A-651.
As to `CC(CCn1cnc2cc(-c3ccc(OCCCN4CCOCC4)cc3)ccc2c1=O)(C(=O)NO)S(C)(=O)=O.O=CO` (racemic) [RE2, (RS)-N-hydroxy-2-methyl-2-(methylsulfonyl)-4-(7-(4-(3-morpholinopropoxy)phenyl)-4-oxoquinazolin-3(4H)-yl)butanamide formate], the MIC with P. aeruginosa ATCC27853 turned out to be 8 µg/mL; in the experiment on E. coli ATCC25922, 1 µg/mL; in the experiment with K. pneumoniae A-651 it was 2 µg/mL.
The corresponding values for `CC(CCn1cnc2cc(-c3ccc(OCCN4CCOCC4)cc3F)ccc2c1=O)(C(=O)NO)S(C)(=O)=O.O=CO` (racemic) [RE3, (RS)-4-(7-(2-fluoro-4-(2-morpholinoethoxy)phenyl)-4-oxoquinazolin-3(4H)-yl)-N-hydroxy-2-methyl-2-(methylsulfonyl)butanamide formate] are 16 µg/mL, 2 µg/mL and 4 µg/mL.
On to `COc1cccc(-c2ccc3c(=O)n(CCC(C)(C(=O)NO)S(C)(=O)=O)cnc3c2)c1F` (racemic) [RE4, (RS)-4-(7-(2-fluoro-3-methoxyphenyl)-4-oxoquinazolin-3(4H)-yl)-N-hydroxy-2-methyl-2-(methylsulfonyl)butanamide], for which the MIC in the experiment on P. aeruginosa ATCC27853 was 8 µg/mL (≈ 17.3 µM); in the experiment with E. coli ATCC25922, 0.125 µg/mL (≈ 0.27 µM); with K. pneumoniae A-651 it was not above 0.063 µg/mL.
`COc1ccc(-c2ccc3c(=O)n(CCC(C)(C(=O)NO)S(C)(=O)=O)cnc3c2)cc1F` (racemic) [RE5, (RS)-4-(7-(3-fluoro-4-methoxyphenyl)-4-oxoquinazolin-3(4H)-yl)-N-hydroxy-2-methyl-2-(methylsulfonyl)butanamide]: the MIC was 16 µg/mL (≈ 34.5 µM) in the experiment on P. aeruginosa ATCC27853, 0.25 µg/mL (≈ 0.539 µM) in the experiment with E. coli ATCC25922 and 1 µg/mL (≈ 2.16 µM) with K. pneumoniae A-651.
The corresponding values for `CN(C)c1ccc(-c2ccc3c(=O)n(CCC(C)(C(=O)NO)S(C)(=O)=O)cnc3c2)cc1` (racemic) [RE6, (RS)-4-(7-(4-(dimethylamino)phenyl)-4-oxoquinazolin-3(4H)-yl)-N-hydroxy-2-methyl-2-(methylsulfonyl)butanamide] are 16 µg/mL (≈ 34.9 µM), 0.125 µg/mL (≈ 0.273 µM) and 0.125 µg/mL (≈ 0.273 µM).
For `CC(CCn1cnc2cc(-c3ccc(CO)cc3)ccc2c1=O)(C(=O)NO)S(C)(=O)=O` (racemic) [RE7, (RS)-N-hydroxy-4-(7-(4-(hydroxymethyl)phenyl)-4-oxoquinazolin-3(4H)-yl)-2-methyl-2-(methylsulfonyl)butanamide], the MIC in the experiment with P. aeruginosa ATCC27853 came to 16 µg/mL (≈ 35.9 µM); in the experiment with E. coli ATCC25922, 2 µg/mL (≈ 4.49 µM); with K. pneumoniae A-651, 8 µg/mL (≈ 18 µM).
The matching figures for `CC(CCn1cnc2cc(-c3ccc(CN4CCOCC4)cc3)ccc2c1=O)(C(=O)NO)S(C)(=O)=O.O=CO` (racemic) [RE8, (RS)-N-hydroxy-2-methyl-2-(methylsulfonyl)-4-(7-(4-(morpholinomethyl)phenyl)-4-oxoquinazolin-3(4H)-yl)butanamide formate]: 16 µg/mL, 1 µg/mL and 2 µg/mL.
The matching figures for `CC(CCn1cnc2cc(-c3ccccc3)c(F)cc2c1=O)(C(=O)NO)S(C)(=O)=O` (racemic) [RE9, (RS)-4-(6-fluoro-4-oxo-7-phenylquinazolin-3(4H)-yl)-N-hydroxy-2-methyl-2-(methylsulfonyl)butanamide]: 16 µg/mL (≈ 36.9 µM), 0.25 µg/mL (≈ 0.577 µM) and not above 0.063 µg/mL.
The corresponding values for `CC(CCn1cnc2cc(C#Cc3ccc(CO)cc3)ccc2c1=O)(C(=O)NO)S(C)(=O)=O` (racemic) [RE10, (RS)-N-hydroxy-4-(7-((4-(hydroxymethyl)phenyl)ethynyl)-4-oxoquinazolin-3(4H)-yl)-2-methyl-2-(methylsulfonyl)butanamide] are 16 µg/mL (≈ 34.1 µM), 0.25 µg/mL (≈ 0.532 µM) and 1 µg/mL (≈ 2.13 µM).
As to `CC(CCn1cnc2cc(C#Cc3ccc(C4(O)COC4)cc3)ccc2c1=O)(C(=O)NO)S(C)(=O)=O` (racemic) [RE11, (RS)-N-hydroxy-4-(7-((4-(3-hydroxyoxetan-3-yl)phenyl)ethynyl)-4-oxoquinazolin-3(4H)-yl)-2-methyl-2-(methylsulfonyl)butanamide], the MIC in the experiment on P. aeruginosa ATCC27853 was 8 µg/mL (≈ 15.6 µM); with E. coli ATCC25922 it was 1 µg/mL (≈ 1.95 µM); in the experiment on K. pneumoniae A-651, 1 µg/mL (≈ 1.95 µM).
On to `CC(CCn1cnc2cc(C#Cc3ccc(CN4CCOCC4)cc3)ccc2c1=O)(C(=O)NO)S(C)(=O)=O.O=CO` (racemic) [RE12, (RS)-N-hydroxy-2-methyl-2-(methylsulfonyl)-4-(7-((4-(morpholinomethyl)phenyl)ethynyl)-4-oxoquinazolin-3(4H)-yl)butanamide formate], for which the MIC in the experiment with P. aeruginosa ATCC27853 worked out at 16 µg/mL; with E. coli ATCC25922, 0.5 µg/mL; in the experiment with K. pneumoniae A-651 it was 0.5 µg/mL.
Regarding `C[C@@](CCn1cnc2cc(C#CC#C[C@@]3(F)C[C@@H]3CO)ccc2c1=O)(C(=O)NO)S(C)(=O)=O` (relative stereo) [Example 30, (R)-4-(7-(((1R*,2R*)-1-fluoro-2-(hydroxymethyl)cyclopropyl)buta-1,3-diyn-1-yl)-4-oxoquinazolin-3(4H)-yl)-N-hydroxy-2-methyl-2-(methylsulfonyl)butanamide], the MIC in the experiment with P. aeruginosa ATCC27853 is 1 µg/mL (≈ 2.1 µM); in the experiment on E. coli ATCC25922, 0.25 µg/mL (≈ 0.526 µM); with K. pneumoniae A-651, 0.5 µg/mL (≈ 1.05 µM).
The matching figures for `C[C@@](CCn1cnc2cc(C#CC#C[C@H]3C[C@]3(F)CO)ccc2c1=O)(C(=O)NO)S(C)(=O)=O` (relative stereo) [Example 33, (R)-4-(7-(((1R*,2R*)-2-fluoro-2-(hydroxymethyl)cyclopropyl)buta-1,3-diyn-1-yl)-4-oxoquinazolin-3(4H)-yl)-N-hydroxy-2-methyl-2-(methylsulfonyl)butanamide]: 0.5 µg/mL (≈ 1.05 µM), 0.25 µg/mL (≈ 0.526 µM) and 0.5 µg/mL (≈ 1.05 µM).
The corresponding values for `COc1ccc(-c2ccc3c(=O)n(CC[C@](C)(C(=O)NO)S(C)(=O)=O)cnc3c2)c(F)c1` (single isomer, unassigned) [Example 1] are 4 µg/mL (≈ 8.63 µM), not above 0.063 µg/mL and 0.25 µg/mL (≈ 0.539 µM).
The matching figures for `C[C@@](CCn1cnc2cc(-c3ccccc3)ccc2c1=O)(C(=O)NO)S(C)(=O)=O` (single isomer, unassigned) [Example 2]: 8 µg/mL (≈ 19.3 µM), 0.25 µg/mL (≈ 0.602 µM) and not above 0.063 µg/mL.
As to `C[C@@](CCn1cnc2cc(C#CC#C[C@H]3C[C@@H]3CO)ccc2c1=O)(C(=O)NO)S(C)(=O)=O` [Example 3, (R)-N-hydroxy-4-(7-(((1S,2S)-2-(hydroxymethyl)cyclopropyl)buta-1,3-diyn-1-yl)-4-oxoquinazolin-3(4H)-yl)-2-methyl-2-(methylsulfonyl)butanamide], the values for the MIC in the experiment on P. aeruginosa ATCC27853, with E. coli ATCC25922 and with K. pneumoniae A-651 were 1 µg/mL (≈ 2.19 µM), 0.125 µg/mL (≈ 0.273 µM) and 0.5 µg/mL (≈ 1.09 µM), respectively.
